Laboratory results as given in ChEMBL document CHEMBL4145494, “Synthesis and biological evaluation of aurora kinases inhibitors based on N-trisubstituted pyrimidine scaffold” (Eur J Med Chem, 2018).
Activity calls are given as the source filed them. The rule behind the calls is not given here.

Tests used:
Aurora kinase A = molecular target: T1, Aurora kinase A (Homo sapiens, UniProt O14965); test: Inhibition of AURKA (unknown origin) using FAM-labeled peptide substrate preincubated for 10 mins followed by substrate addition measured after 60 mins by caliper assay
T1 sequence (O14965 whole entry): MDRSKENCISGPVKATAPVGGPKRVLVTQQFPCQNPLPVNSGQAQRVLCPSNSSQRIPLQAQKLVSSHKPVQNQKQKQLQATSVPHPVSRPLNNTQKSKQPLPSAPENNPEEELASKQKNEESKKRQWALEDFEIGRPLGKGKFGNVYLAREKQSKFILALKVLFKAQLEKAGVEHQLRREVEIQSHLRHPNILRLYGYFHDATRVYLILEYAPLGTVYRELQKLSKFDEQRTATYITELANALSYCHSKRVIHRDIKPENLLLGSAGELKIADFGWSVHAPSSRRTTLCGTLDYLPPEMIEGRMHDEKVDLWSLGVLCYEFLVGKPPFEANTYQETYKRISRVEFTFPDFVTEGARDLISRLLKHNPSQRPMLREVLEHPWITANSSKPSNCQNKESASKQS

Aurora kinase B = Aurora kinase B (Homo sapiens, UniProt Q96GD4); test: Inhibition of AURKB (unknown origin) using FAM-labeled peptide substrate preincubated for 10 mins followed by substrate addition measured after 60 mins by caliper assay
Sequence of Aurora kinase B (Q96GD4 whole entry): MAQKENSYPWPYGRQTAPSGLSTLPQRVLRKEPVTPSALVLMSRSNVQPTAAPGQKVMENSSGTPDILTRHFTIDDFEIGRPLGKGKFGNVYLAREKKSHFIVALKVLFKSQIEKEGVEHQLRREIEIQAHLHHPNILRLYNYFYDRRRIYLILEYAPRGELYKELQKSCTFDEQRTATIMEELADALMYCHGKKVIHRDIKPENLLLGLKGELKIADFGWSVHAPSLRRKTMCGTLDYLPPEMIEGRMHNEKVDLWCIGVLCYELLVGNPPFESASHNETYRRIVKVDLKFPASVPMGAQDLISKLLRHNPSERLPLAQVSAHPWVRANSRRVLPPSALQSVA

U-937 = test: Antiproliferative activity against human U937 cells after 48 hrs by CCK8 assay; assay type: functional, cell-based; conditions: U-937, 48 h
K562 = test: Antiproliferative activity against human K562 cells after 48 hrs by CCK8 assay; assay type: functional, cell-based; conditions: K562, 48 h
HeLa = test: Antiproliferative activity against human HeLa cells after 48 hrs by CCK8 assay; assay type: functional, cell-based
MDA-MB-231 [1] = test: Antiproliferative activity against human MDA-MB-231 cells after 48 hrs by CCK8 assay; assay type: functional, cell-based; conditions: MDA-MB-231, 48 h
MCF7 = test: Antiproliferative activity against human MCF7 cells after 48 hrs by CCK8 assay; assay type: functional, cell-based; conditions: MCF7, 48 h
HCT-116 = test: Antiproliferative activity against human HCT116 cells after 48 hrs by CCK8 assay; assay type: functional, cell-based; conditions: HCT-116, 48 h
A-431 = test: Antiproliferative activity against human A431 cells after 48 hrs by CCK8 assay; assay type: functional, cell-based; conditions: A-431, 48 h
MDA-MB-231 [2] = test: Inhibition of alpha-tubulin in human MDA-MB-231 cells assessed as abolishment of regular location of protein at 0.5 uM after 48 hrs by DAPI staining based immunofluorescence assay; assay type: cell-based
MDA-MB-231 [3] = test: Induction of chromosome alignment defects in human MDA-MB-231 cells at 1 uM after 48 hrs by DAPI staining based immunofluorescence assay; assay type: functional, cell-based
MDA-MB-231 [4] = test: Induction of aberrant spindle formation with tripolar and tetrapolar occurrence in human MDA-MB-231 cells at 1 uM after 48 hrs by DAPI staining based immunofluorescence assay; assay type: functional, cell-based

IC50 (Aurora kinase A) [nM]	IC50 (Aurora kinase B) [nM]	IC50 (U-937) [nM]	IC50 (K562) [nM]	IC50 (HeLa) [nM]	IC50 (MDA-MB-231 [1]) [nM]	IC50 (MCF7) [nM]	IC50 (HCT-116) [nM]	IC50 (A-431) [nM]	Structure (SMILES)	inhibition (MDA-MB-231 [2])	Activity (MDA-MB-231 [3])	Activity (MDA-MB-231 [4])
35	145	94.2	393	507	238	7630	688	375	COC(=O)c1ccc(Nc2nc(Nc3cc(C)[nH]n3)cc(N3CCN(C)CC3)n2)cc1F	–	–	–
33	50	17.9	128	299	84.9	552	106	129	Cc1cc(Nc2cc(N3CCN(C)CC3)nc(Nc3ccc(Cl)c(Cl)c3)n2)n[nH]1	–	–	–
6.3	34.6	24	213	464	101	577	–	–	Cc1cc(Nc2cc(N3CCOCC3)nc(Nc3ccc(F)c(Cl)c3)n2)n[nH]1	–	–	–

Second part, the molecule before the results:

Structure (SMILES)	IC50 (Aurora kinase A) [nM]	IC50 (Aurora kinase B) [nM]	IC50 (U-937) [nM]	IC50 (K562) [nM]	IC50 (HeLa) [nM]	IC50 (MDA-MB-231 [1]) [nM]	IC50 (MCF7) [nM]	IC50 (HCT-116) [nM]	IC50 (A-431) [nM]	inhibition (MDA-MB-231 [2])	Activity (MDA-MB-231 [3])	Activity (MDA-MB-231 [4])
Cc1cc(Nc2cc(N3CCN(C)CC3)nc(Nc3ccc4c(c3)OCO4)n2)n[nH]1	20	91.7	58.4	233	457	206	911	719	419	–	–	–
COC(=O)c1ccc(Nc2nc(Nc3cc(C)[nH]n3)cc(N3CCN(C)CC3)n2)cc1OC	67	442	545	762	872	872	10300	1140	1220	–	–	–
COc1cc(Nc2ncc3c(n2)-c2ccc(Cl)cc2C(c2c(F)cccc2OC)=NC3)ccc1C(=O)O	–	–	–	–	–	–	–	–	–	Active	Active	Active
